From patent US20140030368A1, “COMPOSITION FOR PREVENTING OR TREATING A RESPIRATORY DISEASE CONTAINING A MIXED HERBAL EXTRACT OF CNIDIUM OFFICINALE ROOT AND POLYGONI CUSPIDATI ROOT” (WHANIN PHARMACEUTICAL CO., LTD., priority 2011, published 2014)

Key:
Assay type in all cases: in vivo, mice
[1] = system: inflammatory cells in pulmonary bronchoalveolar lavage; test: Inflammatory cells in pulmonary bronchoalveolar lavage, LPS-induced asthma/COPD model; details: ovalbumin + LPS model
Protocol: Whether the extract of the present invention has the effect of inhibiting pulmonary bronchial inflammation in an LPS (lipopolysaccharide)-induced asthma/chronic obstructive pulmonary disease model was examined (see You-Sun Kim et al., J. Immunol., 2010, 185, 5648-5655; Jun-Pyo Choi et al., Allergy, 2010, 65, 1322-1330).
Specifically, a mixture of 75 μg of ovalbumin and 10 μg of LPS (Sigma) was intranasally administered a total of four times (days 0, 1, 2 and 7) into C57BL/6 male mice (6 weeks old; provided from the Animal Laboratory in Biotech Center, Pohang University of Science & Technology) to sensitize the mice. At 14, 15, 21 and 22 days from the first sensitization date, 50 μg of ovalbumin in PBS was challenged into the nasal cavity to induce asthma and chronic obstructive pulmonary disease. In addition, at 14, 15, 21 and 22 days at which challenge was performed, each of 1.0% CMC, 100, 200 and 400 mg/10 ml/kg of the extract of Example 2, 1 mg/10 ml/Kg of the comparative drug dexamethason and 10 mg/10 ml/kg of the comparative drug montelukast was orally administered twice a day. At 48 hours after the final challenge, the mice were anesthetized by intraperitoneal administration of ketamine and xylazine, and the organ of the mice was exposed and a catheter was inserted therein. Then, the bronchoalveoli were laved with each of 0.8 and 0.7 ml of sterile phosphate buffered saline to obtain a bronchoalveolar lavage. The bronchoalveolar lavage was centrifuged at 4° C. at 1000 rpm for 5 minutes, and the supernatant was removed. 2 ml of 10% FBS-IMDM (fetal bovine serum—Iscove's Modified Dulbecco's Medium) was added to the cells which were then counted. Then, the cells were cytospun, plated on a slide, and Diff-Quick stained. At least 300 inflammatory cells were observed by the staining method and classified into eosinophils, macrophages, neutrophils and lymphocytes, and the cell numbers of the groups treated with dexamethason, montelukast and the extract of Example 2 were compared with the ratios of inflammatory cells in the pulmonary bronchoalveolar lavages of the negative control group and the positive control group, thereby evaluating the inhibitory effects of the test materials against airway inflammation.

[2] = system: invasion of inflammatory cells into lung tissue; test: Invasion of inflammatory cells into lung tissue, LPS-induced asthma/COPD model (H&E score); details: ovalbumin + LPS model
Protocol: Then, the lung was isolated, embedded with paraffin, sectioned to a thickness of […], and stained with H&E (hematoxylin-eosin). The invasion of inflammatory cells into a portion surrounding the airway was measured (see FIG. 3), and the inflammations of the airway and the pulmonary parenchyma were compared and scored.

IFN-γ (interferon-γ) = test: T cell-derived cytokine from lung tissue, LPS-induced asthma/COPD model (ELISA); details: ovalbumin + LPS model
Protocol: (§1) In order to examine whether the extract of the present invention has the effect of inhibiting T cell-derived cytokine isolated from the lung tissue of an LPS-derived asthma/chronic obstructive pulmonary disease model, the following test was performed.
(§2) Specifically, the LPS-induced asthma/chronic obstructive pulmonary disease model was prepared by treatment with each of the extract of Example 2 and a comparative drug in the same manner as described in Test Example 7-1. At 6 hours after the final challenge, the mice were anesthetized by intraperitoneal injection with ketamine and xylazine, and lung tissue was obtained from the mice. The lung tissue was cut finely with a blade and incubated with 5 ml of 1× Trypsin-EDTA and 1000 units of chollagenase at 37° C. for 10 minutes. Then, the tissue was passed through a 100 μm mesh to collect only immune cells. To stimulate T cells among the collected cells, 1×10^5 cells and anti-CD28 (1 μg/ml) were added to a 96-well plate coated with anti-CD3 (1 μg/ml) and were incubated in an incubator at 37° C. for 12 hours. Next, the supernatant was collected, and the amounts of the cytokines IL-17 (interleukin 17) and IFN-γ (interferon-γ) in the supernatant were measured using an ELISA (enzyme-linked immunosorbent assay).

IL-17 (interleukin 17) = test: as above; details: ovalbumin + LPS model
Protocol: as §1, §2

[3] = system: inflammatory cells in pulmonary bronchoalveolar lavage; test: Inflammatory cells in pulmonary bronchoalveolar lavage, E. coli-EV-induced asthma/COPD model
Protocol: Whether the extract of the present invention has the effect of inhibiting pulmonary bronchial inflammation in an E. coli-EV-induced asthma/chronic obstructive pulmonary disease model was evaluated.
Specifically, a mixture of 10 ng of E. coli-EV and PBS was intranasally administered a total of four times (days 0, 1, 2 and 7) into C57BL/6 male mice (6 weeks old; provided from the Animal Laboratory in Biotech Center, Pohang University of Science & Technology) to sensitize the mice. At 14, 15, 21 and 22 days from the first sensitization date, 10 ng of E. coli-EV was challenged into the nasal cavity to induce asthma and chronic obstructive pulmonary disease. In addition, at 14, 15, 21 and 22 days at which the challenge was performed, each of 1.0% CMC, 100, 200 and 400 mg/10 ml/kg of the extract of Example 2, 1 mg/10 ml/kg of the comparative drug dexamethason and 10 mg/10 ml/kg of the comparative drug montelukast was orally administered twice a day. At 48 hours after the final challenge, the mice were anesthetized by intraperitoneal administration of ketamine and xylazine, and the organ of the mice was exposed and a catheter was inserted therein. Then, the bronchoalveoli were laved with each of 0.8 and 0.7 ml of sterile phosphate buffered saline to obtain a bronchoalveolar lavage The bronchoalveolar lavage was centrifuged at 4° C. at 1000 rpm for 5 minutes, and the supernatant was removed. 2 ml of 10% FBS-IMDM (fetal bovine serum—Iscove's Modified Dulbecco's Medium) was added to the cells which were then counted. Then, the cells were cytospun, plated on a slide, and Diff-Quick stained. At least 300 inflammatory cells were observed by the staining method and classified into eosinophils, macrophages, neutrophils and lymphocytes, and the cell numbers of the groups treated with dexamethason, montelukast and the extract of Example 2 were compared with the ratios of inflammatory cells in the pulmonary bronchoalveolar lavages of the negative control group and the positive control group, thereby evaluating the inhibitory effects of the test materials against airway inflammation.

[4] = system: anti-E. coli-EV-specific IgG1; test: Antigen-specific antibody in serum, E. coli-EV-induced model (ELISA)
Protocol: (§3) In order to examine whether the extract of the present invention has the ability to produce an antigen-specific antibody in an E. coli-EV-induced asthma/chronic obstructive pulmonary disease model, the E. coli-EV-induced asthma/chronic obstructive pulmonary disease model was prepared by treatment with each of the extract of Example 2 and a comparative drug in the same manner as described in Test Example 8-1. At 48 hours after the final challenge, the mice were anesthetized by intraperitoneal injection with ketamine and xylazine. Then, blood was collected from the heart using a 1 ml syringe, and serum was separated from the blood by centrifugation. Then, anti-E. coli-EV-specific IgG1 and IgG2a antibodies in the serum were measured according to an ELISA assay, and the results of the measurement are shown in Table 15 below.

[5] = system: anti-E. coli-EV-specific IgG2a; test: as above
Protocol: as §3

## C[C@@H]1C[C@H]2[C@@H]3CCC4=CC(=O)C=C[C@]4(C)[C@@]3(F)[C@@H](O)C[C@]2(C)[C@@]1(O)C(=O)CO [Dexamethason, dexamethason]
[1]; 1 mg/kg b.i.d.
  Inhibition rate(%) Eosinophils: 51.1%
  Inhibition rate(%) Macrophages: 27.3%
  Inhibition rate(%) Total cells: 40.4%
[2]; 1 mg/kg b.i.d.
  Inhibition rate (%) of invasion of inflammatory cells into lung tissue: 28.87%
IFN-γ (interferon-γ); 1 mg/kg b.i.d.
  IFN-γ inhibition rate (%): 15.19%
IL-17 (interleukin 17); 1 mg/kg b.i.d.
  IL-17 inhibition rate (%): 23.12%
[3]; 1 mg/kg b.i.d.
  Inhibition rate(%) Eosinophils: 1.1%
  Inhibition rate(%) Macrophages: 24.7%
  Inhibition rate(%) Total cells: 9.2%
[4]; 1 mg/kg b.i.d.
  Inhibition rate(%) IgG1: 93.8%
[5]; 1 mg/kg b.i.d.
  Inhibition rate(%) IgG2a: 55.7%

## CC(C)(O)c1ccccc1CC[C@@H](SCC1(CC(=O)O)CC1)c1cccc(/C=C/c2ccc3ccc(Cl)cc3n2)c1 [montelukast]
[1]; 10 mg/kg b.i.d.
  Inhibition rate(%) Eosinophils: 13.3%
  Inhibition rate(%) Macrophages: 8.2%
  Inhibition rate(%) Total cells: 10.6%
[2]; 10 mg/kg b.i.d.
  Inhibition rate (%) of invasion of inflammatory cells into lung tissue: 8.25%
IFN-γ (interferon-γ); 10 mg/kg b.i.d.
  IFN-γ inhibition rate (%): 14.50%
IL-17 (interleukin 17); 10 mg/kg b.i.d.
  IL-17 inhibition rate (%): 68.42%
[3]; 10 mg/kg b.i.d.
  Inhibition rate(%) Eosinophils: 15.4%
  Inhibition rate(%) Macrophages: 1.3%
  Inhibition rate(%) Total cells: 1.2%
[4]; 10 mg/kg b.i.d.
  Inhibition rate(%) IgG1: 59.7%
[5]; 10 mg/kg b.i.d.
  Inhibition rate(%) IgG2a: 27.2%
